The values below come from patent publication EP2970359B1, “FLUORINATED PYRIMIDINE ANALOGS AND METHODS OF USE THEREOF” (Epigenetics Pharma LLC, priority 2013, dated 2014).

The test system of data set [1] is NCI-H460. The experiment in a line: In vitro cytotoxicity (GI50), non-small cell lung cancer cell line. Conditions: Homo sapiens. As for the experimental part: (§1) The in vitro cytotoxicity was measured in the following cell lines: NCI-H460 (ATCC #HTB-177) (non-small cell lung), HCT-116 (ATCC #CCL-247) (colorectal), HL-60 (ATCC #CCL-240) (leukemia), and MDA-MB-231 (ATCC #HTB-26) (breast). Table 4. Growth Inhibition (GI50) Values (µM) for Selected Cell Lines.

The subject of data set [2] is HL-60. Description: In vitro cytotoxicity (GI50), leukemia cell line. The format is cell-based. The note with it: Homo sapiens. On the procedure:
as §1

Data set [3] deals with HCT-116. The experiment in a line: In vitro cytotoxicity (GI50), colorectal cancer cell line. Conditions: Homo sapiens. On the procedure: as §1
Data set [4] concerns MDA-MB-231. Description: In vitro cytotoxicity (GI50), breast cancer cell line. The note with it: Homo sapiens. On the procedure: as §1
Data set [5] deals with L1210. Description: In vitro cytotoxicity, leukemia cell line. The note with it: for IC50: Mus musculus, L1210, read-out: In vitro cytotoxicity Leukemia L1210.
The conditions of data set [6]: following subcutaneous administration; reported; cited from earlier work.
Data set [7] relates to Kasumi-1 cells. Description: Giemsa stain of treated cells (morphology). It counts as cell-based. The note with it: compared with vehicle control, FIGURE 11.
For data set [8], the system named is THP-1 cells. The experiment in a line: Giemsa stain of treated cells (morphology). The format is cell-based. The note with it: compared to vehicle control, FIGURE 10.
The conditions of data set [9]: known; cleavage of the base at the 6-position of the cytosine ring; cited from earlier work.
Data set [10] has as its system OVCAR-8. Description: In vitro cytotoxicity, ovarian cancer cell line. Conditions: Homo sapiens, Table 1, asterisk not explained. It counts as cell-based.
The test system of data set [11] is ACHN. The experiment in a line: In vitro cytotoxicity, renal cancer cell line. The format is cell-based. Conditions: Homo sapiens, Table 1, asterisk not explained.
Data set [12] deals with THP-1 leukemia cells. The experiment in a line: Growth inhibition of leukemia cell line compared with decitabine. The note with it: THP-1, equimolar concentrations; FIGURE 7. It counts as cell-based.
In data set [13] the test system is Kasumi-1 cells. Described as above. It counts as cell-based. The note with it: Kasumi-1, equimolar concentrations; FIGURE 8.
Data set [14] concerns P388. The experiment in a line: In vitro cytotoxicity, leukemia cell line. Conditions: Mus musculus, P388, read-out: In vitro cytotoxicity Leukemia P388*.
For data set [15], the target named is T1, DNMT1 (Homo sapiens, UniProt P26358).
T1 construct: endogenous in cells; host or cells: Kasumi-1
The experiment in a line: Western blot of DNMT1 in Kasumi-1 cells. The note with it: two concentrations, FIGURE 9. It counts as cell-based.

Data set [16] relates to DNA methyltransferase (DNMT). Description: In vitro DNA methyltransferase inhibition in HCT-116 cells (EpiQuick DNA Methyltransferase Activity/Inhibition Assay Kit).
A short description of data set [17]: Stability in water. The format is physicochemical.
Data set [18] relates to L1210. Conditions: Table 3.
[19] abbreviates: NCI-H460, read-out: Growth Inhibition (GI50) NCI-H460.
Setting [20] is: HL-60, Table 4, read-out: Growth Inhibition (GI50) HL-60.
The mark [21] stands for this setting: HCT-116, read-out: Growth Inhibition (GI50) HCT-116.
The mark [22] stands for this setting: MDA-MB-231, read-out: Growth Inhibition (GI50) MDA-MB-231.
Where [23] appears, read: NCI-H460, read-out: In vitro cytotoxicity NSCL NCI-H460.
The mark [24] stands for this setting: HCT-116, read-out: In vitro cytotoxicity Colon HCT-116.
[25] abbreviates: MDA-MB-231, read-out: In vitro cytotoxicity Breast MDA-MB-231.

Several values for one entry are separate records, joined by “and”; a condition that tells them apart may be missing. Identical values can stand only once. Entries after “also recorded” stand apart in the source; their conditions may differ. Like-named read-outs stand apart in the source and are kept apart here.

T1 sequence (P26358 whole entry): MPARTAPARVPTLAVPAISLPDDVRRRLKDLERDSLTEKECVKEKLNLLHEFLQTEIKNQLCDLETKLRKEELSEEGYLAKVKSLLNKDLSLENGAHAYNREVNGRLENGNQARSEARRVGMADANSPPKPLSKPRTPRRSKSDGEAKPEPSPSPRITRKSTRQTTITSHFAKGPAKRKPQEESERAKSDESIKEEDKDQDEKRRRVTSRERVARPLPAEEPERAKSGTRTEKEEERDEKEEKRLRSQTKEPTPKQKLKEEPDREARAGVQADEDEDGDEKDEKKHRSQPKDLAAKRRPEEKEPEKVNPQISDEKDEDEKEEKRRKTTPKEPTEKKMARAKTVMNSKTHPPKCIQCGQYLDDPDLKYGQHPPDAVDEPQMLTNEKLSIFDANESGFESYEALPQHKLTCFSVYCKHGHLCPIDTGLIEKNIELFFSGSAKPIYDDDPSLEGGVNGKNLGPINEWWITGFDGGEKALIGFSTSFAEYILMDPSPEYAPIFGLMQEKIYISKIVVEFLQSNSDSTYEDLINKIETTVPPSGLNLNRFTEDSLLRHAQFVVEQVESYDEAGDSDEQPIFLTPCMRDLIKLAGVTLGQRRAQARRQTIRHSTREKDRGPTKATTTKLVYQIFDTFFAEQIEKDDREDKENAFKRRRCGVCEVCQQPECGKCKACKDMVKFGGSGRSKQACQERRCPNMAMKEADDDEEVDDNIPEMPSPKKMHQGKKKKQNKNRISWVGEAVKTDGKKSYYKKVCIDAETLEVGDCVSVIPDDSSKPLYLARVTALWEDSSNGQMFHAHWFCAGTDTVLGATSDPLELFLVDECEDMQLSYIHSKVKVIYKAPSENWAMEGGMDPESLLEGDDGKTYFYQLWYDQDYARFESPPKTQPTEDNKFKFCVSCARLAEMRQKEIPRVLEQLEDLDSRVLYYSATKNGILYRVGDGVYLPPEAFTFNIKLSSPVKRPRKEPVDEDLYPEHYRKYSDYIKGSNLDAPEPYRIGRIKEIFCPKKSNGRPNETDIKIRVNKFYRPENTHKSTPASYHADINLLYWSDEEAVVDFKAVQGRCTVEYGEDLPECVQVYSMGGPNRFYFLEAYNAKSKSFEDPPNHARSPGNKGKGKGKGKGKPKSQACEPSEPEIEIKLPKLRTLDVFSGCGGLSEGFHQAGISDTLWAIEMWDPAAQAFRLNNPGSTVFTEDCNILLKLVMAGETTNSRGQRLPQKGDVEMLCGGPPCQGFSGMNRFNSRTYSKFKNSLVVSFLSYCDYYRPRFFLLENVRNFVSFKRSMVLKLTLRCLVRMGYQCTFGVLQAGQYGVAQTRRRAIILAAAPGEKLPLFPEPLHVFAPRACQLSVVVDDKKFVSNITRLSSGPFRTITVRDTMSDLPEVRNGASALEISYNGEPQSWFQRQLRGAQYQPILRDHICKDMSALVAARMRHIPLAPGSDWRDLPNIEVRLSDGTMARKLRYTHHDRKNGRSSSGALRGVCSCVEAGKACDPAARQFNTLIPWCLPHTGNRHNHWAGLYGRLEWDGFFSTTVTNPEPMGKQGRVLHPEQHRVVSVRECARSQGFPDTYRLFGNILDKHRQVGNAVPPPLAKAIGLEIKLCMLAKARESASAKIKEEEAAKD

On to `NC1=NC(=O)N([C@@H]2O[C@H](CO)[C@@H](O)[C@H]2O)CN1` [5,6-dihydro-5-azacytidine, reference compound], for which the GI50 in data set [1] (setting [19]) was 4.84 µM; in data set [2] (setting [20]), 0.03 µM; in data set [3] (setting [21]), 21.4 µM; in [4] (setting [22]), more than 31.2 µM.

For the compound `Nc1ncn([C@@H]2O[C@H](CO)[C@@H](O)[C@H]2O)c(=O)n1` [Azacytidine, 5-azacytidine], the GI50 in data set [2] (setting [20]) turned out to be 0.44 µM. Also, the IC50 in [5] was 1.7 to 2.4 µM. Besides, the half-life in data set [6] was 41 min.

On to `Nc1ncn([C@H]2C[C@H](O)[C@@H](CO)O2)c(=O)n1` [Decitabine, 5-azadeoxycytidine, reference compound], for which the GI50 in data set [1] (setting [19]) was 13 µM; in data set [2] (HL-60, read-out: Growth Inhibition (GI50) HL-60), 0.27 µM; in [3] (setting [21]), more than 31.2 µM; in [4] (setting [22]) it was more than 31.2 µM. Also, the IC50 is 13 to 44 µM in data set [1] (setting [23]); more than 62.5 µM in data set [3] (setting [24]); more than 62.5 µM in data set [4] (setting [25]); more than 1000 µM in data set [10]; more than 1000 µM in [11]. In addition, the “morphologic changes (Giemsa stain)” value in data set [7] and in data set [8] was “morphologic changes suggestive of cell differentiation” in each case. Further, the stability in water result in data set [9] is “unstable in water”.

Regarding `Nc1ncn([C@@H]2O[C@H](CO)[C@@H](O)C2(F)F)c(=O)n1` [NUC013, 2',2'-difluoro-5-azadeoxycytidine], the GI50 in data set [1] (setting [19]) is 4.39 µM; in data set [2] (setting [20]) it was 1.51 µM; in [3] (HCT-116), 4.54 µM; in data set [3] (setting [21]), 4.54 µM; in [4] (setting [22]) it was more than 31.2 µM. Moreover, the IC50 in data set [1] (setting [23]) was 4.39 µM; in [5], 1.02 µM; in [14], 0.48 µM; in data set [3] (setting [24]), 4.54 µM; in [4] (setting [25]), more than 62.5 µM; in data set [10], 25.9 µM. Moreover, in data set [11], the IC50 was 0.89 µM. Moreover, the entries for the “inhibitory effect on cell growth / cytoreduction compared with decitabine” value in [12] and in data set [13] were “stronger inhibitory effect; also recorded: stronger cytoreduction” and “slightly weaker effect; also recorded: weaker cytoreduction”, respectively. Besides, the “morphologic changes (Giemsa stain)” value in [7] and in [8] was “morphologic changes suggestive of cell differentiation” in each case. In data set [15], the “DNMT1 inhibition by Western blot compared with equimolar decitabine” value is reported as “weaker DNMT1 inhibition”. In [16] (1 µM, 24 hours, HCT-116 cells, one value per experiment (1-4)), the “Percent Inhibition of DNMT” value was 61.73% and 35.77% and 62.63%. The “potency as a DNMTI relative to 5-azacytidine” value in data set [16] (colon cancer cells, FIGURE 6) is “approximately 10 fold”.

For the compound `NC1=NC(=O)N([C@@H]2O[C@H](CO)[C@@H](O)C2(F)F)CN1` [NUC014, 2',2'-difluoro-5,6-dihydro-5-azadeoxycytidine], the IC50 is more than 31.2 µM in [1] (setting [23]), 90.6 µM in data set [5], more than 31.2 µM in [3] (setting [24]) and more than 31.2 µM in data set [4] (setting [25]). The “stability in an aqueous environment” value in data set [17] is “stable in an aqueous environment”. For the same compound, in data set [17] (aqueous environment), the “hydrolytic cleavage at the 6-position of the cytosine” value is “does not undergo hydrolytic cleavage”. Also, the “cytotoxicity against leukemia cell line L1210 (in words)” value in data set [5] is reported as “moderate cytotoxicity”.

Regarding `O=c1ncccn1[C@@H]1O[C@H](CO)[C@@H](O)C1(F)F` [NUC019, 2'-deoxy-2',2'-difluorozebularine], the GI50 was 136 µM in [1] (setting [19]), 310 µM in data set [3] (setting [21]) and 166 µM in data set [4] (setting [22]).

With `O=c1ncccn1[C@H]1O[C@H](CO)[C@@H](O)C1(F)F` [NUC020], the GI50 was found to be 136 µM in [1] (setting [23]), 346 µM in data set [18], 279 µM in data set [3] (setting [24]) and 213 µM in data set [4] (setting [25]).

For the compound `O=c1ncccn1[C@@H]1O[C@H](CO)[C@@H](O)[C@H]1O` [Zebularine, reference compound], the IC50 in [1] (setting [23]) is 99.1 µM; in data set [5], 108 µM; in data set [3] (setting [24]), 47.9 µM; in data set [4] (setting [25]) it was 144 µM.

Regarding `Nc1ccn([C@@H]2O[C@H](CO)[C@@H](O)C2(F)F)c(=O)n1` [gemcitabine, reference compound], the GI50 in data set [1] (setting [19]) came to 0.02 µM; in data set [2] (setting [20]), 0.03 µM; in data set [3] (setting [21]), 0.01 µM; in [4] (setting [22]) it was 0.72 µM.
